Experimental data reported in patent US11103493B2, “Substituted pyridinyl compounds as indoleamine 2,3-dioxygenase (IDO) inhibitors” (Merck Sharp & Dohme Corp., priority 2017, dated 2021).

Tests used:
IDO1 [1] = target: T1, IDO1 (Homo sapiens, UniProt P14902); experiment: IDO1 Human Whole Blood Assay; type: cell-based; conditions: LPS and IFNγ 100 ng/mL, 18 h, kynurenine by LC/MS/MS
Method: IDO1 Human Whole Blood Assay
Compounds to be tested were serially diluted in ten 3-fold steps in DMSO starting from 10 mM. 3 μL of compound dilutions or DMSO alone were then dispensed from the dilution plate into a polypropylene 96-well assay plate containing 97 μL of RPMI medium using an Echo 555 acoustic liquid handler (Labcyte). LPS and IFNγ was prepared in RPMI medium to a 10× of final conc. (1000 ng/mL), final concentration is 100 ng/mL.
Human whole blood was drawn in sodium heparin coated tubes from healthy internal donors. 240 μL of blood was transferred to each of the wells of a v-bottom 96 well plate. 30 μL of compound was transferred from intermediate dilution plate, and incubated for 15 min. 30 μL from stimulants was then transferred to blood and mixed thoroughly. Plate was covered with breathable membrane and incubated at 37° C. for overnight (18 h).
On day 2, isotope labeled standard solutions of kunurenine and tryptophan was made in water at 10× concentration and 30 μL was added to the blood at […] concentration. The assay plates were centrifuged at 300×G for 10 min with no brake to separate plasma from red blood cells. 60 μL of plasma samples was removed without disturbing red blood cells. Plasma was diluted with RPMI in 1:1 ratio and proteins were precipitated out with two volumes of Acetonitrile. The plates were centrifuged at 4000×G for 60 min. 20 μL of supernatant was carefully transferred to a 384 well plate containing 40 μL of 0.1% formic acid in water and analyzed by LC/MS/MS.
LC/MS/MS analyses were performed using Thermo Fisher's LX4-TSQ Quantum Ultra system. This system consists of four Agilent binary high-performance liquid chromatography (HPLC) pumps and a TSQ Quantum Ultra triple quadrupole MS/MS instrument. For each sample, 5 μL were injected onto an Atlantis T3 column (2.1 mm×150 mm, 3 μm particle size) from Waters. The mobile phase gradient pumped at 0.8 mL/min was used to elute the analytes from the column at 25° C. The elution started at 0% B increasing linearly to 25% B at 6.5 min, holding at 25% for 1 min, re-equilibrating to 10 min. Mobile phase A consisted of 0.1% formic acid in water. Mobile phase B consisted of 0.1% of formic acid in acetonitrile. Data was acquired in positive mode using a HESI interface. The operational parameters for the TSQ Quantum Ultra instrument were a spray voltage of 4000 V, capillary temperature of 380° C., vaporizer temperature 400° C., shealth gas 60 arbitrary units, Aux gas 20 arbitrary units, tube lens 85 and collision gas 1.2 mTorr. SRM chromatograms of kynurenine (QI: 209.2>Q3:94.0) and internal standard (QI: 215.3>Q3:98.2) were collected for 90 sec. The peak area was integrated by Xcalibur Quan software. The ratios between the kynurenine generated in the reaction and 2D6-Kynurenine spiked-in internal standard were used to generate percentage inhibition and IC50 values. Compounds were titrated and IC50's were calculated by 4 parameter sigmoidal curve fitting formula.

IDO1 [2] = target: T1, IDO1; experiment: IDO1 Cellular Assay in HeLa Cells Stimulated with IFNγ; type: cell-based; conditions: IFNγ 100 ng/mL, 300 uM L-tryptophan, about 48 hours incubation, fluorescence readout, read-out: IDO1 HeLa Cell Assay, IC50
Method: IDO1 Cellular Assay in HeLa Cells Stimulated with IFNγ
HeLa cells were cultured in complete HeLa culture medium (90% EMEM, 10% heat-inactivated fetal bovine serum) and expanded to about 1×10^9 cells. The cells were then collected and frozen down at 1×10^7 cells/vial in 1 mL frozen medium (90% complete HeLa culture medium, 10% DMSO).
Compounds to be tested were serially diluted in ten 3-fold steps in DMSO starting from 10 mM DMSO stocks in Echo low volume plate(s).
Frozen HeLa cells were thawed and transferred into HeLa assay medium (99% complete HeLa culture medium, 1% Pen/Strep) with 20 mL medium/vial of cells. The cells were spun down at 250 g in a table top centrifuge for 5 min and suspended in same volume of HeLa assay medium. The cells were then counted and adjusted to a density of 2×10^5 cells/mL in HeLa assay medium. Sterile L-tryptophan were added to the cells with final concentration of 300 uM L-tryptophan. A small aliquot (2 mL/plate) of HeLa cells were set aside and were not treated with IFNγ, to serve as the Max-E control.
HeLa cells with and without IFNγ were dispensed to the respective wells of 384-well assay plates containing the compounds. The plates were incubated for about 48 hours at a 37° C., 5% CO2 incubator. Afterwards, 12 μL of 0.5 M methyl isonipecotate in dimethyl sulfoxide were added into each well and the plates were sealed and incubated at 37° C. without CO2 overnight. The plates were centrifuged for 1 min at 200×g. The resulting fluorescence was measured in a Spectramax plate reader (Molecular Devices) with a 400 nm excitation filter and a 510 nm emission filter.
Potencies were calculated by […] least squares fit to the four parameter logistic IC50 equation.

T1 sequence (P14902 whole entry): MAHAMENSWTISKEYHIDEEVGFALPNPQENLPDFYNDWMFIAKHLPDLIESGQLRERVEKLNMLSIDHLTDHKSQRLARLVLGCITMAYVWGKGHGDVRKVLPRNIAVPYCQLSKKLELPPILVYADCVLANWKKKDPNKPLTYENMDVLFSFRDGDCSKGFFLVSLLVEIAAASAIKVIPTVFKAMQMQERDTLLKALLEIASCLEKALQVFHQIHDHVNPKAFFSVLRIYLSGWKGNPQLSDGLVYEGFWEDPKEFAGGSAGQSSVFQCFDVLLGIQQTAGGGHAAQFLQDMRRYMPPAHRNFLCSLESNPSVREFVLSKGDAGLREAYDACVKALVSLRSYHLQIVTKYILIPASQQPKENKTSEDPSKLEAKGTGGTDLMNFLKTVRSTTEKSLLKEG

| SMILES | IC50 (IDO1 [1]) [nM] | IC50 (IDO1 [2]) [nM] |
| --- | --- | --- |
| O=C(Nc1ccc(C2(c3nc4cc(F)c(F)cc4[nH]3)CCC2)cn1)c1cccc(Cl)c1 [Ex. 16, 3-chloro-N-{5-[1-(5,6-difluoro-1H-benzimidazol-2-yl)cyclobutyl]pyridin-2-yl}benzamide] | 889 | 7.77 |
| O=C(Nc1ccc(C2(c3nc4ncc(C(F)(F)F)cc4[nH]3)CCC2)cn1)c1cccc(Cl)c1 [Ex. 7, 3-chloro-N-(5-{1-[6-(trifluoromethyl)-1H-imidazo[4,5-b]pyridin-2-yl]cyclobutyl}pyridin-2-yl)benzamide] | 273 | 5.66 |
| O=C(Nc1ccc(C2(c3nc4ncc(Br)cc4[nH]3)CCC2)cn1)c1cccc(Cl)c1 [Ex. 1, N-(5-(1-(6-bromo-1H-imidazo[4,5-b]pyridin-2-yl)cyclobutyl)pyridin-2-yl)-3-chlorobenzamide] | 159 | 10.1 |
| N#Cc1cccc(C(=O)Nc2ccc(C3(c4nc5cccc(C(=O)N6CCCC6)c5[nH]4)CCC3)cn2)c1 [Ex. 38, 3-cyano-N-(5-{1-[7-(pyrrolidine-1-carbonyl)-1H-benzimidazol-2-yl]cyclobutyl}pyridin-2-yl)benzamide] | 220 | 2.18 |
| N#Cc1cccc(C(=O)Nc2ccc(C3(c4nc5cc(C(F)(F)F)cnc5[nH]4)CCC3)cn2)c1 [Ex. 28, 3-cyano-N-(5-{1-[6-(trifluoromethyl)-3H-imidazo[4,5-b]pyridin-2-yl]cyclobutyl}pyridin-2-yl)benzamide] | 2290 | 23.5 |
| N#Cc1cnc2nc(C3(c4ccc(NC(=O)c5cccc(Cl)c5)nc4)CCC3)[nH]c2c1 [Ex. 2, 3-Chloro-N-(5-(1-(6-cyano-1H-imidazo[4,5-b]pyridin-2-yl)cyclobutyl)pyridin-2-yl)benzamide] | 387 | 13.6 |
| N#Cc1cccc(C(=O)Nc2ccc(C3(c4nc5cccc(C(=O)N6CCC(O)CC6)c5[nH]4)CCC3)cn2)c1 [Ex. 37, 3-Cyano-N-(5-(1-(7-(4-hydroxypiperidine-1-carbonyl)-1H-benzo[d]imidazol-2-yl)cyclobutyl)pyridin-2-yl)benzamide] | 58.2 | 5.38 |
| N#Cc1cccc(C(=O)Nc2ccc(C3(c4nc5ccccc5[nH]4)CCC3)nc2)c1 [Ex. 46, N-(6-(1-(1H-benzo[d]imidazol-2-yl)cyclobutyl)pyridin-3-yl)-3-cyanobenzamide] | 1690 | 6.11 |
| N#Cc1cccc(C(=O)Nc2ccc(C3(c4nc5ncc(C(F)(F)F)cc5[nH]4)CCC3)nc2)c1 [Ex. 45, 3-Cyano-N-(6-(1-(6-(trifluoromethyl)-1H-imidazo[4,5-b]pyridin-2-yl)cyclobutyl)pyridin-3-yl)benzamide] | 5780 | 4.98 |

Continued, values first:

| IC50 (IDO1 [1]) [nM] | IC50 (IDO1 [2]) [nM] | SMILES |
| --- | --- | --- |
| 3290 | 24.8 | N#Cc1cccc(C(=O)Nc2ccc(C3(c4nc5cccc(CCO)c5[nH]4)CCC3)cn2)c1 [Ex. 34, 3-Cyano-N-(5-(1-(7-(2-hydroxyethyl)-1H-benzo[d]imidazol-2-yl)cyclobutyl)pyridin-2-yl)benzamide] |
| 429 | 6.87 | O=C(Nc1ccc(C2(c3nc4ccccc4[nH]3)CCC2)cn1)c1cccc(Cl)c1 [Ex. 3, N-(5-(1-(1H-benzo[d]imidazol-2-yl)cyclobutyl)pyridin-2-yl)-3-chlorobenzamide] |
| 312 | 6.58 | N#Cc1cccc(C(=O)Nc2ccc(C3(c4nc5cc(Cl)ccc5[nH]4)CCC3)cn2)c1 [Ex. 30, N-(5-[1-(5-chloro-1H-benzimidazol-2-yl)cyclobutyl]pyridin-2-yl}-3-cyanobenzamide] |
| 1070 | 7.67 | O=C(Nc1ccc(C2(c3nc4ccc(OC(F)F)cc4[nH]3)CCC2)cn1)c1cccc(Cl)c1 [Ex. 23, 3-chloro-N-(5-{1-[6-(difluoromethoxy)-1H-benzimidazol-2-yl]cyclobutyl}pyridin-2-yl)benzamide] |
| 1600 | 20.7 | O=C(O)Cc1cccc2nc(C3(c4ccc(NC(=O)c5cccc(Cl)c5)nc4)CCC3)[nH]c12 [Ex. 33, 2-(2-(1-(6-(3-Chlorobenzamido)pyridin-3-yl)cyclobutyl)-1H-benzo[d]imidazol-7-yl)acetic acid] |
| 125 | 2.79 | Cc1ccc2nc(C3(c4ccc(NC(=O)c5cccc(Cl)c5)nc4)CCC3)[nH]c2c1 [Ex. 13, 3-chloro-N-{5-[1-(6-methyl-1H-benzimidazol-2-yl)cyclobutyl]pyridin-2-yl}benzamide] |
| 493 | 4.69 | Cc1cc(C)c2[nH]c(C3(c4ccc(NC(=O)c5cccc(Cl)c5)nc4)CCC3)nc2c1 [Ex. 8, 3-chloro-N-{5-[1-(5,7-dimethyl-1H-benzimidazol-2-yl)cyclobutyl]pyridin-2-yl}benzamide] |
| 691 | 7.21 | O=C(Nc1ccc(C2(c3nc4cccc(F)c4[nH]3)CCC2)cn1)c1cccc(Cl)c1 [Ex. 25, 3-chloro-N-{5-[1-(7-fluoro-1H-benzimidazol-2-yl)cyclobutyl]pyridin-2-yl}benzamide] |
| 80.9 | 1.89 | O=C(Nc1ccc(C2(c3nc4ccc(Cl)cc4[nH]3)CCC2)cn1)c1cccc(Cl)c1 [Ex. 21, 3-chloro-N-{5-[1-(6-chloro-1H-benzimidazol-2-yl)cyclobutyl]pyridin-2-yl}benzamide] |
| 496 | 3.47 | Cc1cc2nc(C3(c4ccc(NC(=O)c5cccc(Cl)c5)nc4)CCC3)[nH]c2cc1F [Ex. 27, 3-chloro-N-{5-[1-(6-fluoro-5-methyl-1H-benzimidazol-2-yl)cyclobutyl]pyridin-2-yl}benzamide] |
| 279 | 2.42 | O=C(Nc1ccc(C2(c3nc4ccc(C(F)(F)F)cc4[nH]3)CCC2)cn1)c1cccc(Cl)c1 [Ex. 19, 3-chloro-N-(5-{1-[6-(trifluoromethyl)-1H-benzimidazol-2-yl]cyclobutyl}pyridin-2-yl)benzamide] |
| 446 | 5.4 | O=C(Nc1ccc(C2(c3nc4cccc(CCCO)c4[nH]3)CCC2)cn1)c1cccc(Cl)c1 [Ex. 32, 3-Chloro-N-(5-(1-(7-(3-hydroxypropyl)-1H-benzo[d]imidazol-2-yl)cyclobutyl)pyridin-2-yl)benzamide] |
| 826 | 6.65 | O=C(Nc1ccc(C2(c3nc4cccc(CO)c4[nH]3)CCC2)cn1)c1cccc(Cl)c1 [Ex. 24, 3-chloro-N-(5-{1-[7-(hydroxymethyl)-1H-benzimidazol-2-yl]cyclobutyl}pyridin-2-yl)benzamide] |
